Calls of active or inactive are those of the source. The rule behind the calls is not given here.
How the values were obtained:
Trypanosoma cruzi [1] = assay: Antiparasitic activity against Trypanosoma cruzi Tulahuen CL2 intracellular amastigotes expressing beta-galactosidase infected in human MRC5 SV2 cells after 7 days by chlorophenol red beta-D-galactopyranoside-based spectrophotometric analysis; type: functional, organism-based; conditions: Tulahuen CL2, MRC-5 SV2, 168 h, read-out: EC50
CYP450 [2] = assay: Drug metabolism in dog liver microsome S9 fraction assessed as CYP450-mediated metabolism by measuring compound remaining at 5 uM pretreated with NADPH and measured after 30 mins by UPLC-MS/MS analysis; type: ADME, microsomes, Canis lupus familiaris; conditions: liver microsome S9 fraction, read-out: Stability
UGT [3] = assay: Drug metabolism in rat liver microsome S9 fraction assessed as UGT-mediated metabolism by measuring compound remaining at 5 uM pretreated with UDPGA and measured after 30 mins by UPLC-MS/MS analysis; type: ADME, microsomes; conditions: liver microsome S9 fraction, read-out: Stability
[4] = molecular target: T1, UDP-glucuronosyltransferases (UGTs) (family) (Homo sapiens, UniProt O60656+O75310+O75795+P06133+P0DTE4+P0DTE5+P16662+P19224+P22309+P22310+P35503+P35504+P36537+P54855+Q6UWM9+Q9BY64+Q9HAW7+Q9HAW8+Q9HAW9); assay: Drug metabolism in human liver microsome S9 fraction assessed as UGT-mediated metabolism by measuring compound remaining at 5 uM pretreated with UDPGA and measured after 60 mins by UPLC-MS/MS analysis; type: ADME, microsomes; conditions: liver microsome S9 fraction, read-out: Stability
UGT [5] = assay: Drug metabolism in rat liver microsome S9 fraction assessed as UGT-mediated metabolism by measuring compound remaining at 5 uM pretreated with UDPGA and measured after 15 mins by UPLC-MS/MS analysis; type: ADME, microsomes; conditions: liver microsome S9 fraction, read-out: Stability
Trypanosoma cruzi [6] = assay: Antiparasitic activity against Trypanosoma cruzi Y strain bloodstream trypomastigotes infected in Swiss Webster mouse assessed as decrease in parasitemia at 25 mg/kg, po bid via gavage administered for 5 consecutive days measured at day 8 post infection by direct microscopic counting relative to control; type: functional; design: scale not given: the % may be the effect or the level left
[7] = Cytotoxicity against Swiss mouse embryonic cardiomyocytes assessed as reduction in cell viability after 24 hrs by prestoblue-staining based colorimetry; conditions: Cardiac muscle cell
UGT [8] = assay: Drug metabolism in dog liver microsome S9 fraction assessed as UGT-mediated metabolism by measuring compound remaining at 5 uM pretreated with UDPGA and measured after 60 mins by UPLC-MS/MS analysis; type: ADME, microsomes, Canis lupus familiaris; conditions: liver microsome S9 fraction, read-out: Stability
Trypanosoma cruzi [9] = assay: Trypanocidal activity against Trypanosoma cruzi Y strain intracellular amastigotes infected in mouse cardiac cells assessed as parasite death after 168 hrs by Giemsa-staining based assay; type: functional, organism-based
CYP450 [10] = assay: Drug metabolism in mouse liver microsome S9 fraction assessed as CYP450-mediated metabolism by measuring compound remaining at 5 uM pretreated with NADPH and measured after 15 mins by UPLC-MS/MS analysis; type: ADME, microsomes; conditions: liver microsome S9 fraction, read-out: Stability
[11] = (§1) Drug metabolism in mouse liver microsome S9 fraction assessed as UGT-mediated metabolism by measuring compound remaining at 5 uM pretreated with UDPGA and measured after 15 mins by UPLC-MS/MS analysis; type: ADME, microsomes; conditions: microsomes, 0.25 h, 5 µM
[12] = molecular target: T1, UDP-glucuronosyltransferases (UGTs) (family); assay: Drug metabolism in human liver microsome S9 fraction assessed as UGT-mediated metabolism by measuring compound remaining at 5 uM pretreated with UDPGA and measured after 15 mins by UPLC-MS/MS analysis; type: ADME, microsomes; conditions: liver microsome S9 fraction, read-out: Stability
UGT [13] = assay: Drug metabolism in mouse liver microsome S9 fraction assessed as UGT-mediated metabolism by measuring compound remaining at 5 uM pretreated with UDPGA and measured after 30 mins by UPLC-MS/MS analysis; type: ADME, microsomes; conditions: liver microsome S9 fraction, read-out: Stability
Trypanosoma cruzi [14] = assay: Trypanocidal activity against Trypanosoma cruzi Y strain bloodstream trypomastigotes isolated from infected Swiss mouse […] assessed as parasite death after 24 hrs by neubauer chamber based light microscopy; type: functional, organism-based
CYP450 [15] = assay: Drug metabolism in dog liver microsome S9 fraction assessed as CYP450-mediated metabolism by measuring compound remaining at 5 uM pretreated with NADPH and measured after 15 mins by UPLC-MS/MS analysis; type: ADME, microsomes, Canis lupus familiaris; conditions: liver microsome S9 fraction, read-out: Stability
CYP450 [16] = assay: Drug metabolism in mouse liver microsome S9 fraction assessed as CYP450-mediated metabolism by measuring compound remaining at 5 uM pretreated with NADPH and measured after 60 mins by UPLC-MS/MS analysis; type: ADME, microsomes; conditions: liver microsome S9 fraction, read-out: Stability
[17] = Cytotoxicity against human MRC5 SV2 cells assessed as reduction in cell viability after 3 days resazurin-based fluorimetric assay; conditions: MRC-5 SV2, 72 h
Trypanosoma cruzi [18] = assay: Antiparasitic activity against Trypanosoma cruzi Y strain bloodstream trypomastigotes infected in Swiss Webster mouse at 25 mg/kg, po bid via gavage administered for 5 consecutive days starting from day 5 post infection followed by cyclophosphamide-induced immunosuppression on day 40 post infection for 4 consecutive days; type: functional, organism-based
Cytochrome P450 (family) [19] = molecular target: T2, Cytochrome P450 (family) (Homo sapiens, UniProt P04798+P05177+P05181+P08684+P10632+P10635+P11509+P11712+P13584+P20813+P20815+P20853+P24462+P24903+P33260+P33261+P51589+P78329+P98187+Q02928+Q08477+Q16678+Q16696+Q5TCH4+Q6VVX0+Q7Z449+Q8TAV3+Q96SQ9+Q9HB55); assay: Drug metabolism in human liver microsome S9 fraction assessed as CYP450-mediated metabolism by measuring compound remaining at 5 uM pretreated with NADPH and measured after 30 mins by UPLC-MS/MS analysis; type: ADME, microsomes; conditions: liver microsome S9 fraction, read-out: Stability
UGT [20] = assay: Drug metabolism in rat liver microsome S9 fraction assessed as UGT-mediated metabolism by measuring compound remaining at 5 uM pretreated with UDPGA and measured after 60 mins by UPLC-MS/MS analysis; type: ADME, microsomes; conditions: liver microsome S9 fraction, read-out: Stability
UGT [21] = assay: Drug metabolism in mouse liver microsome S9 fraction assessed as UGT-mediated metabolism by measuring compound remaining at 5 uM pretreated with UDPGA and measured after 60 mins by UPLC-MS/MS analysis; type: ADME, microsomes; conditions: liver microsome S9 fraction, read-out: Stability
[22] = Cytotoxicity against Swiss mouse embryonic cardiomyocytes assessed as reduction in cell contractibillity at 2 uM after 24 hrs by light microscopy; conditions: cardiac muscle cell
[23] = Toxicity in Swiss Webster mouse infected with Trypanosoma cruzi Y strain bloodstream trypomastigotes assessed as weight loss at 25 mg/kg, po bid via gavage administered for 5 consecutive days measured at day 40 post infection; type: organism-based; conditions: in vivo
Cytochrome P450 (family) [24] = molecular target: T2, Cytochrome P450 (family); assay: Drug metabolism in human liver microsome S9 fraction assessed as CYP450-mediated metabolism by measuring compound remaining at 5 uM pretreated with NADPH and measured after 15 mins by UPLC-MS/MS analysis; type: ADME, microsomes; conditions: liver microsome S9 fraction, read-out: Stability
CYP450 [25] = assay: Drug metabolism in mouse liver microsome S9 fraction assessed as CYP450-mediated metabolism by measuring compound remaining at 5 uM pretreated with NADPH and measured after 30 mins by UPLC-MS/MS analysis; type: ADME, microsomes; conditions: liver microsome S9 fraction, read-out: Stability
[26] = Therapeutic index, ratio EC50 for human MRC5 SV2 cells to EC50 for Trypanosoma cruzi Tulahuen CL2 intracellular amastigotes; type: toxicity, cell-based; conditions: read-out: Ratio EC50
CYP450 [27] = assay: Drug metabolism in dog liver microsome S9 fraction assessed as CYP450-mediated metabolism by measuring compound remaining at 5 uM pretreated with NADPH and measured after 60 mins by UPLC-MS/MS analysis; type: ADME, microsomes, Canis lupus familiaris; conditions: liver microsome S9 fraction, read-out: Stability
Cytochrome P450 (family) [28] = molecular target: T2, Cytochrome P450 (family); assay: Drug metabolism in human liver microsome S9 fraction assessed as CYP450-mediated metabolism by measuring compound remaining at 5 uM pretreated with NADPH and measured after 60 mins by UPLC-MS/MS analysis; type: ADME, microsomes; conditions: liver microsome S9 fraction, read-out: Stability
UGT [29] = assay: Drug metabolism in dog liver microsome S9 fraction assessed as UGT-mediated metabolism by measuring compound remaining at 5 uM pretreated with UDPGA and measured after 30 mins by UPLC-MS/MS analysis; type: ADME, microsomes, Canis lupus familiaris; conditions: liver microsome S9 fraction, read-out: Stability
[30] = (§2) Drug metabolism in rat liver microsome S9 fraction assessed as CYP450-mediated metabolism by measuring compound remaining at 5 uM pretreated with NADPH and measured after 15 mins by UPLC-MS/MS analysis; type: ADME, microsomes; conditions: microsomes, 0.25 h, 5 µM
[31] = molecular target: T1, UDP-glucuronosyltransferases (UGTs) (family); assay: Drug metabolism in human liver microsome S9 fraction assessed as UGT-mediated metabolism by measuring compound remaining at 5 uM pretreated with UDPGA and measured after 30 mins by UPLC-MS/MS analysis; type: ADME, microsomes; conditions: liver microsome S9 fraction, read-out: Stability
CYP450 [32] = assay: Drug metabolism in rat liver microsome S9 fraction assessed as CYP450-mediated metabolism by measuring compound remaining at 5 uM pretreated with NADPH and measured after 60 mins by UPLC-MS/MS analysis; type: ADME, microsomes; conditions: liver microsome S9 fraction, read-out: Stability
Trypanosoma cruzi [33] = assay: (§3) Antiparasitic activity against Trypanosoma cruzi Y strain bloodstream trypomastigotes infected in Swiss Webster mouse assessed as protection against parasite-induced mortality by measuring survivial at 25 mg/kg, po bid via gavage administered for 5 consecutive days starting from day 5 post infection measured at day 40 post infection relative to control; type: functional
UGT [34] = assay: Drug metabolism in dog liver microsome S9 fraction assessed as UGT-mediated metabolism by measuring compound remaining at 5 uM pretreated with UDPGA and measured after 15 mins by UPLC-MS/MS analysis; type: ADME, microsomes, Canis lupus familiaris; conditions: liver microsome S9 fraction, read-out: Stability
CYP450 [35] = assay: Drug metabolism in rat liver microsome S9 fraction assessed as CYP450-mediated metabolism by measuring compound remaining at 5 uM pretreated with NADPH and measured after 30 mins by UPLC-MS/MS analysis; type: ADME, microsomes; conditions: liver microsome S9 fraction, read-out: Stability
UGT [36] = assay: as §1; type: ADME, microsomes; conditions: liver microsome S9 fraction, read-out: Stability
Trypanosoma cruzi [37] = assay: as §3, with “mortality” for “mortality by measuring survivial”, “15 to day 22” for “40”, “infection” for “infection relative to control”; type: functional, organism-based
Trypanosoma cruzi [38] = assay: as §3, with “mortality” for “mortality by measuring survivial”, “15” for “40”, “infection” for “infection relative to control”; type: functional, organism-based
CYP450 [39] = assay: as §2; type: ADME, microsomes; conditions: liver microsome S9 fraction, read-out: Stability

SMILES | EC50 (Trypanosoma cruzi [1]) | remaining at 0.5 h, 5 µM (CYP450 [2]) | remaining at 0.5 h, 5 µM (UGT [3]) | remaining at 1 h, 5 µM [4] | remaining at 0.25 h, 5 µM (UGT [5]) | Activity (Trypanosoma cruzi [6]) | EC50 [7] | remaining at 1 h, 5 µM (UGT [8]) | EC50 (Trypanosoma cruzi [9]) | remaining at 0.25 h, 5 µM (CYP450 [10]) | remaining at 0.25 h, 5 µM [12] | remaining at 0.5 h, 5 µM (UGT [13]) | EC50 (Trypanosoma cruzi [14]) | remaining at 0.25 h, 5 µM (CYP450 [15]) | remaining at 1 h, 5 µM (CYP450 [16]) | EC50 [17] | Activity (Trypanosoma cruzi [18]) | remaining at 0.5 h, 5 µM (Cytochrome P450 (family) [19]) | remaining at 1 h, 5 µM (UGT [20]) | remaining at 1 h, 5 µM (UGT [21]) | further results
Nc1ncnc2c1c(-c1ccc(Cl)cc1)cn2[C@@H]1O[C@H](CO)[C@@H](O)[C@H]1O | 0.47 µM | 96% | 93% | 91% | 100% | >99.8% | 274 µM | 55% | 0.029 µM | 110% | 99% | 110% | > 20 µM | 93% | 102% | 27 µM | inactive | 93% | 93% | 106% | Stability [11]: 124%; Activity [22]: Toxic; Activity [23]: Non-Toxic; remaining at 0.25 h, 5 µM (Cytochrome P450 (family) [24]): 113%; remaining at 0.5 h, 5 µM (CYP450 [25]): 95%; selectivity ratio [26]: 57; remaining at 1 h, 5 µM (CYP450 [27]): 98%; remaining at 1 h, 5 µM (Cytochrome P450 (family) [28]): 86%; remaining at 0.5 h, 5 µM (UGT [29]): 70%; Stability [30]: 122%; remaining at 0.5 h, 5 µM [31]: 96%; remaining at 1 h, 5 µM (CYP450 [32]): 106%; Activity (Trypanosoma cruzi [33]): 100%; remaining at 0.25 h, 5 µM (UGT [34]): 84%; remaining at 0.5 h, 5 µM (CYP450 [35]): 104%
Nc1ncnc2c1c(-c1ccc(Cl)cc1)cn2[C@@H]1O[C@H](CO)C[C@H]1O | 0.047 µM | 96% | 96% | 100% | 101% | 94.6% | 284 µM | 95% | 0.029 µM | 86% | 100% | 95% | > 20 µM | 98% | 68% | 19.1 µM | inactive | 95% | 96% | 89% | remaining at 0.25 h, 5 µM (UGT [36]): 101%; Activity (Trypanosoma cruzi [37]): Active; Activity [23]: Non-Toxic; remaining at 0.25 h, 5 µM (Cytochrome P450 (family) [24]): 102%; remaining at 0.5 h, 5 µM (CYP450 [25]): 75%; selectivity ratio [26]: 410; remaining at 1 h, 5 µM (CYP450 [27]): 90%; remaining at 1 h, 5 µM (Cytochrome P450 (family) [28]): 93%; Activity (Trypanosoma cruzi [38]): Active; remaining at 0.5 h, 5 µM (UGT [29]): 96%; remaining at 0.25 h, 5 µM (CYP450 [39]): 101%; remaining at 0.5 h, 5 µM [31]: 106%; remaining at 1 h, 5 µM (CYP450 [32]): 91%; Activity (Trypanosoma cruzi [33]): 100%; remaining at 0.25 h, 5 µM (UGT [34]): 96%; remaining at 0.5 h, 5 µM (CYP450 [35]): 101%

Reference: ChEMBL document CHEMBL4382200, “Discovery of Novel 7-Aryl 7-Deazapurine 3'-Deoxy-ribofuranosyl Nucleosides with Potent Activity against Trypanosoma cruzi” (J Med Chem, 2018)
